Assay results taken from article PMC3731299, “Isoniazid Inhibits the Heme-Based Reactivity of Mycobacterium tuberculosis Truncated Hemoglobin N” (PLoS ONE, 2013).
Like-named read-outs stand apart in the source and are kept apart here. Marks after values point to notes of the source that are not given here.

What was measured:
Mt-trHbN(II) = biological target: T1, Mt-trHbN(II) (Mycobacterium tuberculosis, UniProt P9WN25); type: binding
T1 construct: made in house

Sperm whale Mb(II) = test system: Sperm whale Mb(II); set-up: method as in PMID 3733708; details: pH 7.0, 20.0°C; cited from earlier work
Mt-trHbN(III) [1] = biological target: T2, Mt-trHbN(III) (Mycobacterium tuberculosis, UniProt P9WN25); type: biochemical
T2 construct: made in house

Mt-trHbN(III) [2] = biological target: T2, Mt-trHbN(III); assay: Peroxynitrite isomerization by Mt-trHbN(III) in the absence and presence of isoniazid; type: biochemical; details: [azide] >10×H
Description: Rapid-mixing experiments were performed using either the SX18.MV stopped-flow apparatus (Applied Photophysics, Salisbury, United Kingdom) or the SFM-20 stopped-flow apparatus (Bio-Logic SAS, Claix, France); the dead time was 1.0 ms.
Kinetics of peroxynitrite isomerization by Mt-trHbN(III) in the absence and presence of isoniazid was recorded spectrophotometrically at 302 nm (ε302 nm = 1.705×10^3 M^−1 cm^−1) [60]–[67] in the absence and presence of Mt-trHbN(III) (final concentration 2.5×10^−6 – 1.0×10^−5 M) and isoniazid (final concentration 3.0×10^−5 – 4.0×10^−4 M) by rapid mixing the Mt-trHbN(III) or buffer solution with the peroxynitrite solution (final concentration 2.5×10^−4 M).
Kinetics of peroxynitrite isomerization by Mt-trHbN(III) in the absence and presence of isoniazid was analyzed in the framework of the minimum reaction mechanism depicted by Scheme D [60]–[67]: [drawing 11] (D)
Values of the pseudo-first-order rate constant for Mt-trHbN(III)-mediated peroxynitrite isomerization (i.e., l ^obs) were determined in the absence and presence of isoniazid according to Equation 8 [60]–[67]: [drawing 12] (8)
Values of the second-order rate constant for Mt-trHbN(III)-mediated peroxynitrite isomerization (i.e., l on) and of the first-order rate constant for peroxynitrite isomerization in the absence of Mt-trHbN(III) (i.e., l 0) were determined from the linear dependence of l ^obs values on the Mt-trHbN(III) concentration according to Equation 9 [60]–[67]: [drawing 13] (9)
The value of K for isoniazid binding to Mt-trHbN(III) was determined from the dependence of l on the drug concentration (i.e., 3.0×10^−5 M ≤ [isoniazid] ≤4.0×10^−4 M) according to Equation 11 [60]–[67]: [drawing 15] (11) where l on ^app is the value of l on in the presence of isoniazid.

Sperm whale Mb(III) = details: pH 7.0, 25.0°C, cited from earlier work
Mt-trHbN(III) [3] = biological target: T2, Mt-trHbN(III); assay: biochemical; type: binding; details: pH 7
[4] = absence of Mt-trHbN(III), isoniazid and azide

With `[C-]#[O+]` [CO] the “amplitude (1 – a) of the CO binding process (slow phase)” value (Mt-trHbN(II)) was 0.62, the “amplitude a of the CO binding process” value (Mt-trHbN(II)) was 1 and the “amplitude a of the CO binding process (isoniazid-free fraction, fast phase)” value (Mt-trHbN(II)) was 0.38. The “f obs, pseudo-first order rate constant for CO binding” value (Mt-trHbN(II)) was 170 s⁻¹, the “f obs, pseudo-first order rate constant for CO binding (fast phase)” value (Mt-trHbN(II)) was 170 s⁻¹ and the “f obsi, pseudo-first order rate constant for CO binding in the presence of isoniazid (slow phase)” value (Mt-trHbN(II)) was 1.5 s⁻¹. For the same molecule, the “second-order association rate constant f on for CO binding to Mt-trHbN(II)” value (Mt-trHbN(II); pH 7) was “f on = (3.8±0.5)×10^6 M^−1 s^−1”, the “f off for CO binding to sperm whale Mb(II)” value (Sperm whale Mb(II)) was “f off = 1.9×10^−2 s^−1h” and the “f on for CO binding to sperm whale Mb(II)” value (Sperm whale Mb(II)) was “f on = 5.1×10^5 M^−1 s^−1 ^h”.
For `[N-]=[N+]=[N-]` [azide], the “average yield of NO2 –” value (Mt-trHbN(III) [1]) was 26%, the “average yield of NO3 –” value (Mt-trHbN(III) [1]) was 74% and the “NO2 –” value (Mt-trHbN(III) [1]; pH 7) was 26±4%. For the same molecule, the “NO3 –” value (Mt-trHbN(III) [1]; pH 7) was 73±7%, the “NO3 – + NO2 –” value (Mt-trHbN(III) [1]; pH 7) was 99% and the “average yield of NO2 –” value [4] was 29%. The “average yield of NO3 –” value [4] was 72%, the “NO2 –” value (pH 7) was 27±6% and the “NO3 –” value (pH 7) was 74±5%. The “NO3 – + NO2 –” value (pH 7) was 101%, the “Mt-trHbN(III) catalysis of peroxynitrite isomerization” value (Mt-trHbN(III) [2]) was “does not catalyze the isomerization of peroxynitrite” and the “h off for azide binding to sperm whale Mb(III)” value (Sperm whale Mb(III)) was “h off = 3.0×10^−1 s^−1 ^d”. For the same molecule, the “h on for azide binding to sperm whale Mb(III)” value (Sperm whale Mb(III)) was “h on = 4.4×10^3 M^−1 s^−1 ^d”, the Kd (Sperm whale Mb(III); read-out: H for azide binding to sperm whale Mb(III)) was 50 µM and the “first-order dissociation rate constant h off” value (Mt-trHbN(III) [3]) was “h off = (7.1±0.8)×10^−1 s^−1”. The “second-order association rate constant h on” value (Mt-trHbN(III) [3]) was “h on = (9.6±1.1)×10^3 M^−1 s^−1”, the Kd (Mt-trHbN(III) [3]; read-out: H calculated from kinetic parameters (h off/h on)) was 74 µM and the Kd (Mt-trHbN(III) [3]; read-out: dissociation equilibrium constant H for azide binding to Mt-trHbN(III)) was 73 µM.
